Columns and labels:
[1] = test system: Acetyl CoA Carboxylase (ACC); experiment: Phosphorylation of ACC in HepG2 cell (Western blot); format: cell-based, Human; details: HepG2, 50 uM, 5 minutes, P<0.01 or P<0.05
Protocol: (§1) Human hepatoma carcinoma cell strain (HepG2, purchased from the cell bank of Shanghai Institute of Cell Biology of Chinese Academy) was used. The Human hepatoma carcinoma cells were passaged by 0.1% pancreatin/0.02% EDTA digestion, and cultured in a incubator at 37° C. using MEM culture medium containing 10% FBS, under 5% CO2/95%.
(§2) HepG2 cells were cultured in 6-well plates for 48 hours until 70%-80% confluence. Serum starvation was started by changing medium with MEM containing 0.5% BSA. After starvation for 6 hours, cells were treated with the compounds (final concentration of 50 uM, containing 0.25% DMSO) for 5 minutes. The culture medium was discarded, and cells were harvested and washed for twice with pre-cooled PBS. The washing liquid was discarded, and any residual PBS was blotted dry. DMSO without heptacyclic compounds was used as control.
(§3) Extraction of total cellular protein: 150 μl/well homogenizing buffer (137 mM NaCl, 2.7 mM KCl, 1 mM MgCl2, 0.5 mM Na3VO4, 1% Triton X-100, 10% Glycerol, 20 mM Tris-HCl pH 7.8, 1 ug/ml Leupeptin, 0.2 mM PMSF, 10 mM NaF, 1 ug/ml Aprotinin, 1 mM EDTA, 1 mM DTT, 5 mM Sodium pyrophosphate, 1 mM Benzamidine) was added. Cells were collected into a 1.5 ml centrifuge tube using cell scraper. Cells were homogenized using sonicator (5 W of power) for 2 times (3 seconds per time), and shaken on a shaker for 1 hour. Supernatant (i.e., total cellular protein) was collected by centrifuging at 14000 rpm for 15 min at 4° C., and stored at −70° C. until use. After the protein concentration was determined by Bradford method, the supernatant was formulated as the loading sample with final concentration of 0.6 mg/ml. The whole preparation process was performed at 4° C.
(§4) Protein Electrophoresis: After being treated at 95° C. for 5 min, the loading sample was loaded (15 μg protein/lane). The protein was separated on 7.5% SDS-acrylamide gel for 1-2 hours under the voltage of 80-120 V.
(§5) Electrotransferring the protein and blocking the membrane: After electrophoresis was finished, the protein was transferred to PVDF membrane using semi-dry transferring slot based on 0.8 mA/cm^2 membrane area under the electric current of 80 mA for 2 hours. After that, the membrane was shaken for 2 hours with 7.5% skim milk/TTBS to block the membrane.
(§6) Antigen-antibody reaction: After the blocking process was finished, the membrane was incubated with primary antibody (antibody against phosphorylated ACC (P-ACC) and antibody against phosphorylated AMPK (P-AMPK), all purchased from Cell signaling (USA), with the working concentration of 1:1000) overnight at 4° C. The membrane was removed, and the primary antibody was recovered. The membrane was washed 5 times, each for 10 min in TTBS. The membrane was shaken for 2 hours with the secondary antibody (horseradish peroxidase-conjugated goat-anti-rabbit IgG antibody, purchased from Bio-rad (USA), with the working concentration of 1:5000) at room temperature. The secondary antibody was discarded. The membrane was washed 5 times, each for 10 min in TTBS in order to remove the unbound secondary antibody.
(§7) ECL exposure and development: Luminescent agents, ECL 1, 2, were mixed homogeneously, and incubated with the membrane for 3-5 min. The membrane was removed, wrapped in preservative film, and transferred into dark room for exposure. After exposure with X-film, the film was developed, washed, recorded and conserved.
(§8) Semi-quantitative analysis was performed through optical density scan using computer image analysis system. Grey level of the protein expression was calculated. The target grey level was divided by the grey level of internal standard, and a histogram was plotted, taking the normal group as 1 unit.

[2] = test system: AMP-Activated Protein Kinase (AMPK); experiment: Phosphorylation of AMPK in HepG2 cell (Western blot); format: cell-based, Human; details: HepG2, 50 uM, 5 minutes, P<0.01 or P<0.05
Protocol: as §1, §2, §3, §4, §5, §6, §7, §8

[3] = test system: 3T3-L1 adipocytes; experiment: Glucose uptake in 3T3-L1 adipocytes (3H-labelled 2-deoxyglucose); format: cell-based; details: for Glucose uptake, Mean, Compound + Insulin Group (Control Group = 1.000): 10 μM, 2 h incubation, with insulin, relative to control without insulin; for fold induction at 10 µM: Mus musculus, 3T3-L1, 2 h incubation, baseline (without insulin), relative to control, read-out: Glucose uptake, Mean, Compound Group (Control Group = 1.000)
Protocol: The effect of the compounds on baseline or insulin-stimulated glucose uptake was evaluated, using the model of glucose uptake in 3T3-L1 adipocytes.
Adipose tissue is the target of glucose metabolism in vivo. The sensitivity for insulin and availability of glucose in adipose tissues are tightly associated with the insulin resistance. The transportation of glucose into adipocytes is a rate-limiting step for the glucose metabolism, and also an important indicator for evaluating the sensitivity for insulin in adipose tissue. 3T3-L1 is a kind of pre-adipocyte, and can become adipocyte after differentiated completely. Therefore, 3T3-L1 is a desirable model for the glucose transport.
Pre-adipocyte, 3T3-L1 was induced to differentiate under certain conditions. After 3T3-L1 differentiated into adipocytes, the compounds of interest with different concentrations and DMSO (used as control) can be added and incubated with the adipocytes for different periods, then the glucose uptake could be determined. For evaluating the ability for a compound to stimulate glucose uptake, the baseline and insulin-induced glucose uptake were determined, and the increase in baseline and insulin-induced glucose uptake upon treatment of the compounds as compared with control group (with 0.1% DMSO) is calculated, based on the ^3H-labelled 2-deoxyglucose inside the cells.
3T3-L1 cells purchased from Karolinska Institute (Sweden) were cultured in DMEM medium containing 10% fetal calf serum at 37° C., under 5% CO2. The cells were passaged every 3-4 days. The cells were inoculated into 12-well plate. Upon confluence, culture medium containing 0.5 mM 3-isobutyl-1-methylxanthine, 0.25 μM dexamethasone and 5 μg/ml insulin was added and cultured for 3 days. Then, the culture medium was replaced by a medium containing 5 μg/ml insulin and further cultured for 3 days. The insulin was removed, and the cells had differentiated completely into mature adipocytes after 2 days which could be used to determine the glucose uptake.
23 compounds chosen by the inventors were added into the culture medium of adipocytes in a dose of 10 μM. After incubation for 2 h, the effect of the compounds on glucose uptake in 3T3-L1 cells was observed. Culture medium without compounds was used as negative control. The control group only supplemented with insulin and the experiment group supplemented with compounds plus insulin were also employed to observe the effect of the compounds on glucose uptake.

Structure (SMILES) | Level of phosphorylation for ACC protein versus DMSO control [1] | Level of phosphorylation for AMPK protein versus DMSO control [2] | Glucose uptake, Mean, Compound + Insulin Group (Control Group = 1.000) [3] | fold induction at 10 µM [3]
CCCOC(=O)c1cc(OC)c(C)c2c1Oc1c(C=O)c(O)cc(C)c1C(=O)O2 [Compound A4, 4-Formyl-3-hydroxy-8-methoxy-1,9-dimethyl-11-oxo-11H-dibenzo[b,e][1,4]dioxepine-6-carboxylic acid propyl ester] | improved significantly | significant up-regulation | 3.449 | 1.18
COc1cc(C(=O)O)c2c(c1C)OC(=O)c1c(C)cc(O)c(CNCCn3cccc3)c1O2 [Compound C1, 3-Hydroxy-8-methoxy-1,9-dimethyl-11-oxo-4-[(2-pyrrol-1-yl-ethylamino)-methyl]-11H-dibenzo[b,e][1,4]dioxepine-6-carboxylic acid] | improved significantly | increased significantly | 4.059 | 1.21
COc1cc(C(=O)O)c2c(c1C)OC(=O)c1c(C)cc(O)c(CNc3ccccc3)c1O2 [Compound B9, 3-Hydroxy-8-methoxy-1,9-dimethyl-11-oxo-4-phenylaminomethyl-11H-dibenzo[b,e][1,4]dioxepine-6-carboxylic acid] | improved significantly | increased significantly | 2.824 | 1.16
CCN(CC)C(=O)c1cc(OC)c(C)c2c1Oc1c(C=O)c(O)cc(C)c1C(=O)O2 [AB5, 4-Formyl-3-hydroxy-8-methoxy-1,9-dimethyl-11-oxo-11H-dibenzo[b,e][1,4]dioxepine-6-carboxylic acid diethylamide] | improved significantly | increased significantly | 1.755 | 1.29
CCCCOC(=O)c1cc(OC)c(C)c2c1Oc1c(C=O)c(O)cc(C)c1C(=O)O2 [Compound A6, 4-Formyl-3-hydroxy-8-methoxy-1,9-dimethyl-11-oxo-11H-dibenzo[b,e][1,4]dioxepine-6-carboxylic acid butyl ester] | improved significantly | significant up-regulation |  | 
CCOC(=O)c1cc(OC)c(C)c2c1Oc1c(C=O)c(O)cc(C)c1C(=O)O2 [Compound A2, 4-Formyl-3-hydroxy-8-methoxy-1,9-dimethyl-11-oxo-11H-dibenzo[b,e][1,4]dioxepine-6-carboxylic acid ethyl ester] | improved significantly | significant up-regulation | 3.138 | 1.37
COc1cc(C(=O)NCc2ccccc2)c2c(c1C)OC(=O)c1c(C)cc(O)c(C=NCc3ccccc3)c1O2 [AB6, 4-(Benzylimino-methyl)-3-hydroxy-8-methoxy-1,9-dimethyl-11-oxo-11H-dibenzo[b,e][1,4]dioxepine-6-carboxylic acid benzylamide] | improved significantly | increased significantly | 1.432 | 1.14

Source: patent publication US8158623B2, “Heptacyclic compounds and the pharmaceutical uses thereof for preventing and treating diabetes and metabolic syndrome” (Shanghai Institute of Materia Medica Chinese Academy of …, priority 2007, dated 2012)
